According to ChEMBL document CHEMBL3872201, “Synthesis and antiproliferative activity of a natural like glycoconjugate polycyclic compound” (2016):

Experiment: Cytotoxicity against human MDA-MB-231 cells assessed as inhibition of cell viability at 5 uM after 48 hrs by MTT assay relative to control
Type: functional
Settings: MDA-MB-231, 48 h

C=C1c2c(C)nn(-c3ccc(OC)cc3)c2N(C)C23CC1C1(C)c4c(C)nn(-c5ccc(OC)cc5)c4N(C)C(C)(CC12)C3 (stereo unspecified)
inhibition at 5 µM: 26%
